Measured values from patent US10179355B2, “Bioremediation enhancing agents and methods of use” (JRW BIOREMEDIATION, LLC, priority 2007, dated 2019).
Values joined by “and” are separate entries in the source; they are usually repeats but may differ in a detail not shown here. Equal entries are not always repeated.

Tests used:
[1] = tested on: dechlorinating bacteria known to convert PCE to ethene; experiment: Set C: Efficiency by Volatile Fatty Acid Analysis; format: cell-based, Dehalococcoides and Dehalobacter spp.
Source text: Sets B, C, D, E, and G further contain figures and tables showing results of the characterization of the Efficiency and the Relative Efficiency of electron donor usage. Efficiency may be defined as the percent of electron donor utilized for dechlorination, and may be calculated by dividing the pmoles of Chloride ion generated by the pmoles of electron donor consumed as measured by either Volatile Fatty Acid (VFA) analysis (Sets B, C, and G) or Chemical Oxygen Demand (COD) analysis (Set D and E). The Relative Efficiency of the electron donor utilization may be defined as the Efficiency of the Electron Donor divided by the Efficiency of the Lactate Control.
The method used to calculate the consumption of the electron donor measured the propionate, acetate and formate levels to calculate the consumption of electron donor over time. The lactate and propionate fermented very rapidly resulting in acetate and formate as the only measurable VFAs.

[2] = tested on: dechlorinating bacteria known to convert PCE to ethene; experiment: Set G: Additional Yeast Metabolites and Polysaccharides as Nutrients, PCE dechlorination microcosms (kinetics, Relative Rate, paired t-test); format: cell-based, Dehalococcoides and Dehalobacter spp.
Source text: Certain contaminated materials (or sites) may contain indigenous microbial communities that are sufficient for complete bioremediation of contaminants. For such sites, there is no need to add microbes unless the indigenous microbes are genetically deficient in achieving the desired clean-up goals. For those sites that are microbiologically limited, microorganisms may be added to the contaminated materials (or sites). In one embodiment, the inoculum may be a mixed culture of halo-respiring bacteria that have been enriched to reach an optimal cell density. These mixed cultures of halo-respiring bacteria may be typically obtained from sediment samples from rivers, streams or any waterways. More specifically, the inoculum used in the Examples was originated from a Sangamon River sediment sample (Lodge Park, Piatt County, Ill.) See, e.g., Brennan, R. A., Sanford, R. A. and Werth, C. J. (2006). “Biodegradation of Tetrachloroethene by Chitin Fermentation Products in a Continuous Flow Column System.” Journal of Environ. Engr., June 665-673. This culture had grown for several years on PCE, anaerobic basal salts medium, Wolfe's vitamin solution and various electron donors including lactate (1-2 millimolar (mM)), formate (4 mM) and chitin using the Volatile Interface Transfer Apparatus (VITA) reactor system at the University of Illinois. Brennan, R. A., and Sanford, R. A. (2002). “Continuous steady-state method using Tenax for delivering tetrachloroethene to chlororespiring bacteria.” Appl. Environ. Microbiol., 68(3), 1464-1467. […] Using 16S rRNA gene-specific primers, both Dehalococcoides and Dehalobacter spp. were detected. Quantitative real-time PCR has been used to determine that approximately 1.65×10^7 Dehalococcoides gene copies were present per ml of culture.
For purpose of this disclosure, each bottle may be started with a certain amount of PCE. At subsequent times each bottle may be sampled for the degradation daughter products of PCE, namely trichloroethene (TCE), cis-dichloroethene (DCE), vinyl chloride (VC) and ethene, etc. Trans-DCE and 1,1-DCE are also daughter products of PCE, but they may not be detectable under the conditions disclosed here.
The rate of degradation may be determined by calculating the number of pmoles of chloride ions removed from PCE and subsequently from the amounts of the daughter products generated. The calculation may be performed as follows: Chloride (μmoles)=[…]−4×PCE (μmoles)−3×TCE (pmoles)−2×DCE (μmoles)−VC (μmoles)
The alternative chloride calculation is: Chloride (μmoles)=TCE (μmoles)+2×DCE (μmoles)+3×VC (μmoles)+4×Ethene (μmoles)
Next, the dechlorination rate may be determined for each bottle at each time by dividing the Chloride generated by the time (days). The data may be then normalized to the lactate control by taking the ratio of Chloride Rate (pmoles/day) and the Lactate Control Chloride Rate (pmoles/day). This ratio is called Relative Rate and is dimensionless.
As shown in the Examples, a paired t-test has been conducted to calculate the probability that the Relative Rate of one group (i.e. with Nutrient) is greater than the other group (i.e. without Nutrient). The null hypothesis is that the underlying means of the two paired groups are equal. The Probability that one group has higher Relative Rates than the other group is shown in various tables in the Examples.
The following components were used in the system for bioremediating contaminated ground water microcosms in Examples 2-8: • 160 milliliter (ml) stoppered serum bottles • 100 ml of anaerobic culture medium, groundwater containing an excess of bioavailable phosphorus and nitrogen at 0.5 mM Phosphate and 1 mM ammonium degassed with a nitrogen sparge • Nominally 1 gram of limestone • 19.54 micromoles (pmoles) Perchloroethene (PCE) • An excess of various electron donors were utilized • 3 ml of inoculum containing dechlorinating bacteria known to convert PCE to ethene. […]

CC(O)C(=O)[O-].[Na+] (stereo not shown) [Lactate Control, sodium lactate]
Estimated % Efficiency [1]: 2.55% | Relative Efficiency ([1]; relative to Lactate Control): 1.00 | Cl^− Rate ± s.d. ([2]; 0 days): 0.00 ± 0.00 µmol | Cl^− ± s.d. ([2]; 0 days): 0.00 ± 0.00 µmol | DCE ± s.d. ([2]; 0 days): 0.00 ± 0.00 µmol | Ethene ± s.d. ([2]; 0 days): 0.00 ± 0.00 µmol | PCE ± s.d. ([2]; 0 days): 20.80 ± 0.95 µmol | TCE ± s.d. ([2]; 0 days): 0.00 ± 0.00 µmol | VC ± s.d. ([2]; 0 days): 0.00 ± 0.00 µmol | Cl^− Rate ± s.d. ([2]; 21 days): 0.13 ± 0.05 µmol | Cl^− ± s.d. ([2]; 21 days): 2.83 ± 1.04 µmol | DCE ± s.d. ([2]; 21 days): 0.31 ± 0.18 µmol | Ethene ± s.d. ([2]; 21 days): 0.07 ± 0.01 µmol | PCE ± s.d. ([2]; 21 days): 18.6 ± 0.45 µmol | TCE ± s.d. ([2]; 21 days): 1.91 ± 0.71 µmol | VC ± s.d. ([2]; 21 days): 0.00 ± 0.00 µmol | Cl^− Rate ± s.d. ([2]; 35 days): 0.26 ± 0.10 µmol | Cl^− ± s.d. ([2]; 35 days): 8.95 ± 3.33 µmol | DCE ± s.d. ([2]; 35 days): 1.39 ± 0.72 µmol | Ethene ± s.d. ([2]; 35 days): 0.07 ± 0.00 µmol | PCE ± s.d. ([2]; 35 days): 10.80 ± 1.36 µmol | TCE ± s.d. ([2]; 35 days): 5.91 ± 1.90 µmol | VC ± s.d. ([2]; 35 days): 0.00 ± 0.00 µmol | Cl^− Rate ± s.d. ([2]; 50 days): 0.49 ± 0.10 µmol | Cl^− ± s.d. ([2]; 50 days): 24.59 ± 5.08 µmol | DCE ± s.d. ([2]; 50 days): 9.70 ± 2.99 µmol | Ethene ± s.d. ([2]; 50 days): 0.07 ± 0.00 µmol | PCE ± s.d. ([2]; 50 days): 3.13 ± 1.26 µmol | TCE ± s.d. ([2]; 50 days): 4.92 ± 1.03 µmol | VC ± s.d. ([2]; 50 days): 0.00 ± 0.00 µmol | Cl^− Rate ± s.d. ([2]; 79 days): 0.53 ± 0.02 µmol | Cl^− ± s.d. ([2]; 79 days): 42.00 ± 1.93 µmol | DCE ± s.d. ([2]; 79 days): 20.84 ± 0.96 µmol | Ethene ± s.d. ([2]; 79 days): 0.07 ± 0.00 µmol | PCE ± s.d. ([2]; 79 days): 0.00 ± 0.00 µmol | TCE ± s.d. ([2]; 79 days): 0.04 ± 0.07 µmol | VC ± s.d. ([2]; 79 days): 0.00 ± 0.01 µmol | Cl^− Rate ± s.d. ([2]; 138 days): 0.24 ± 0.01 µmol | Cl^− ± s.d. ([2]; 138 days): 33.42 ± 1.26 µmol | DCE ± s.d. ([2]; 138 days): 16.55 ± 0.64 µmol | Ethene ± s.d. ([2]; 138 days): 0.06 ± 0.00 µmol | PCE ± s.d. ([2]; 138 days): 0.00 ± 0.00 µmol | TCE ± s.d. ([2]; 138 days): 0.00 ± 0.00 µmol | VC ± s.d. ([2]; 138 days): 0.03 ± 0.03 µmol | Relative Rate ([2]; bottle 1, 21 days): 0.78 | Relative Rate ([2]; bottle 1, 35 days): 0.63 | Relative Rate ([2]; bottle 1, 50 days): 0.86 | Relative Rate ([2]; bottle 1, 79 days): 1.08 | Relative Rate ([2]; bottle 1, 138 days): 0.51 | Relative Rate ([2]; bottle 2, 21 days): 1.43 | Relative Rate ([2]; bottle 2, 35 days): 1.37 | Relative Rate ([2]; bottle 2, 50 days): 1.24 | Relative Rate ([2]; bottle 2, 79 days): 1.13 | Relative Rate ([2]; bottle 2, 138 days): 0.49 | Relative Rate ([2]; bottle 3, 21 days): 0.80 | Relative Rate ([2]; bottle 3, 35 days): 1.00 | Relative Rate ([2]; bottle 3, 50 days): 0.90 | Relative Rate ([2]; bottle 3, 79 days): 1.03 | Relative Rate ([2]; bottle 3, 138 days): 0.48 | dechlorination kinetics / completeness of dechlorination (in words) ([2]; through 138 days): statistically higher dechlorination kinetics as compared to PS1 and molasses | Relative Rate ([2]; time 21 days, bottles 1-3): 1.43 and 0.80 and 0.78 | Relative Rate ([2]; time 50 days, bottles 1-3): 1.24 and 0.90 and 0.86 | Relative Rate ([2]; time 79 days, bottles 1-3): 1.08 and 1.13 and 1.03 | Relative Rate ([2]; time 138 days, bottles 1-3): 0.51 and 0.49 and 0.48
